Here are results for seven molecules from ChEMBL document CHEMBL3046155, “Synthesis and antimicrobial activity of 7-alkoxyhesperetin derivatives” (2011).

Values after ≈ are worked out from the molar mass of the structure shown. Active and inactive are the calls of the source. No cut-off for these calls is given here.

Common to all, as to format: functional
Test [1] has as its system Escherichia coli. The experiment in a line: Antibacterial activity against Escherichia coli ATCC 25922 after 24 hr by two-fold serial dilution test. The settings on record: ATCC 25922, 24 h.
In test [2] the test system is Bacillus subtilis. Kind of test: Antibacterial activity against Bacillus subtilis ATCC 9372 after 24 hr by two-fold serial dilution test. Conditions: ATCC 9372, 24 h.
Test [3] relates to Staphylococcus aureus. Kind of test: Antibacterial activity against Staphylococcus aureus ATCC 25923 after 24 hr by two-fold serial dilution test. The settings on record: ATCC 25923, 24 h.
Another test concerns Proteus vulgaris. Kind of test: Antibacterial activity against Proteus vulgaris ATCC 14153 after 24 hr by two-fold serial dilution test. Conditions: ATCC 14153, 24 h.
The subject of test [4] is Escherichia coli. Kind of test: Antibacterial activity against Escherichia coli ATCC 25922 at 400 ug/mL after 24 hr by agar well diffusion assay.
For test [5], the system named is Staphylococcus aureus. The experiment in a line: Antibacterial activity against Staphylococcus aureus ATCC 25923 at 400 ug/mL after 24 hr by agar well diffusion assay.
For test [6], the system named is Bacillus subtilis. Kind of test: Antibacterial activity against Bacillus subtilis ATCC 9372 at 400 ug/mL after 24 hr by agar well diffusion assay.

Consider `CCCCOc1cc(O)c2c(c1)O[C@H](c1ccc(OC)c(O)c1)CC2=O` [7-BUTOXYHESPERETIN], for which the MIC in the test with Escherichia coli [1] came out at 100 µg/mL (≈ 279 µM); in the test with Bacillus subtilis [2], 100 µg/mL (≈ 279 µM); in the test with Staphylococcus aureus [3], 25 µg/mL (≈ 69.8 µM); against Proteus vulgaris, 50 µg/mL (≈ 140 µM).

Consider `CCCCCCCCCCCCOc1cc(O)c2c(c1)O[C@H](c1ccc(OC)c(O)c1)CC2=O` [7-DODECYLOXYHESPERETIN], for which the MIC with Escherichia coli [1] was found to be 50 µg/mL (≈ 106 µM); in the test on Bacillus subtilis [2], 50 µg/mL (≈ 106 µM); in the test with Staphylococcus aureus [3] it was 6.25 µg/mL (≈ 13.3 µM); in the test with Proteus vulgaris, 12.5 µg/mL (≈ 26.6 µM).

For the molecule `COc1cc(O)c2c(c1)O[C@H](c1ccc(OC)c(O)c1)CC2=O` [7-METHOXYHESPERETIN], the MIC against Escherichia coli [1] was determined as 200 µg/mL (≈ 632 µM); with Bacillus subtilis [2] it was 200 µg/mL (≈ 632 µM); against Staphylococcus aureus [3] it was 100 µg/mL (≈ 316 µM); with Proteus vulgaris, 50 µg/mL (≈ 158 µM).

On to `CCCCCCCCOc1cc(O)c2c(c1)O[C@H](c1ccc(OC)c(O)c1)CC2=O` [7-OCTOXYHESPERETIN], for which the MIC against Escherichia coli [1] was 25 µg/mL (≈ 60.3 µM); in the test on Bacillus subtilis [2] it was 50 µg/mL (≈ 121 µM); in the test on Staphylococcus aureus [3], 12.5 µg/mL (≈ 30.2 µM); with Proteus vulgaris, 25 µg/mL (≈ 60.3 µM).

On to `COc1ccc([C@@H]2CC(=O)c3c(O)cc(O)cc3O2)cc1O` [HESPERETIN], for which the “diameter of the inhibition zone (DIZ)” value in the test on Escherichia coli [4] and in the test on Staphylococcus aureus [5] was “inactive” in each case. The MIC against Bacillus subtilis [2] amounted to 200 µg/mL (≈ 662 µM); with Proteus vulgaris, 100 µg/mL (≈ 331 µM).

For `COc1ccc([C@@H]2CC(=O)c3c(O)cc(O[C@@H]4O[C@H](CO[C@@H]5O[C@@H](C)[C@H](O)[C@@H](O)[C@H]5O)[C@@H](O)[C@H](O)[C@H]4O)cc3O2)cc1O` [HESPERIDIN], the “diameter of the inhibition zone (DIZ)” value in the test with Escherichia coli [4], in the test with Staphylococcus aureus [5] and in the test on Bacillus subtilis [6] was “inactive” throughout. This molecule also showed an MIC in the test with Proteus vulgaris of 200 µg/mL (≈ 328 µM).

For `CN[C@@H]1[C@H](O[C@H]2[C@H](O[C@H]3[C@H](O)[C@@H](O)[C@H](N=C(N)N)[C@@H](O)[C@@H]3N=C(N)N)O[C@@H](C)[C@]2(O)C=O)O[C@@H](CO)[C@H](O)[C@H]1O.CN[C@@H]1[C@H](O[C@H]2[C@H](O[C@H]3[C@H](O)[C@@H](O)[C@H](N=C(N)N)[C@@H](O)[C@@H]3N=C(N)N)O[C@@H](C)[C@]2(O)C=O)O[C@@H](CO)[C@H](O)[C@H]1O.O=S(=O)(O)O.O=S(=O)(O)O.O=S(=O)(O)O` [STREPTOMYCIN SULFATE], the MIC turned out to be 1.56 µg/mL in the test with Escherichia coli [1], 50 µg/mL in the test with Bacillus subtilis [2], 25 µg/mL with Staphylococcus aureus [3] and 3.13 µg/mL against Proteus vulgaris.
